Data from ChEMBL document CHEMBL3243921, “2-Pyrrolidinylideneureas, a new class of central nervous system agents” (J Med Chem, 1978).
Activity calls are given as the source filed them.

How the values were obtained:
Rattus norvegicus [1] = test: Antianxiety activity in ip dosed rat assessed as effect on increase in punished responses administered qd for 5 days measured every day for 5 days; assay type: functional; settings: 120 h, read-out: MED
Mus musculus [2] = test: Muscle relaxant activity in po dosed mouse assessed as blockade of pentylenetetrazol-induced tonic extensor seizure; assay type: functional
Mus musculus [3] = test: Muscle relaxant activity in po dosed mouse assessed as increase in strychnine-induced persistant convulsive threshold; assay type: functional
Mus musculus [4] = test: Anticonvulsant activity in po dosed mouse assessed as blockade of supramaximal electroshock-induced […] seizure; assay type: functional
Mus musculus [5] = test: Acute toxicity in po dosed mouse assessed as concentration required to produce 50% loss of righting reflex administered as qd for 4 days measured for 1 min post last dose; assay type: organism-based; settings: in vivo
[6] = Acute toxicity in po dosed mouse assessed as mortality administered as qd for 6 days measured on day 7 post last dose; assay type: organism-based; settings: in vivo
[7] = Ratio of LD50 for po dosed mouse to PD50 for acute toxicity in po dosed mouse assessed as concentration required to produce 50% loss of righting reflex; assay type: organism-based; settings: in vivo
[8] = Therapeutic index, ratio of PD50 for acute toxicity in po dosed mouse assessed as concentration required to produce 50% loss of righting reflex to MED20 for muscle relaxant activity in po dosed mouse assessed as blockade of pentylenetetrazol-induced tonic extensor seizure; assay type: organism-based; settings: in vivo, read-out: TI
[9] = Therapeutic index, ratio of PD50 for acute toxicity in po dosed mouse assessed as concentration required to produce 50% loss of righting reflex to MED20 for anticonvulsant activity in po dosed mouse assessed as blockade of supramaximal electroshock-induced […] seizure; assay type: organism-based; settings: in vivo, read-out: TI
[10] = Therapeutic index, ratio of PD50 for acute toxicity in po dosed mouse assessed as concentration required to produce 50% loss of righting reflex to MED25 for muscle relaxant activity in po dosed mouse assessed as increase in strychnine-induced persistant convulsive threshold; assay type: organism-based; settings: in vivo, read-out: TI
Mus musculus [11] = test: Sedative activity in mouse assessed as increase in pentylenetetrazol-induced pseudo-convulsive threshold at 25 to 200 mg/kg, po; assay type: functional, organism-based
Mus musculus [12] = test: Sedative activity in mouse assessed as increase in pentylenetetrazol-induced pseudo-convulsive threshold at 100 mg/kg, po; assay type: functional, organism-based; design: dose 100 mg/kg
Mus musculus [13] = test: Sedative activity in mouse assessed as increase in pentylenetetrazol-induced pseudo-convulsive threshold at 200 mg/kg, po relative to control; assay type: functional
Mus musculus [14] = test: Hypotic activity in mouse assessed as increase in pentylenetetrazol-induced persistant-convulsive threshold at 200 mg/kg, po relative to control; assay type: functional, organism-based; design: dose 200 mg/kg
[15] = Therapeutic index, ratio of PD50 for acute toxicity in po dosed mouse assessed as concentration required to produce 50% loss of righting reflex to MED causing antianxiety activity in ip dosed rat assessed as effect on increase in punished responses; assay type: organism-based; settings: in vivo, other: oral (PD50, mouse) and intraperitoneal (MED, rat), read-out: TI
Mus musculus [16] = test: Blockade of pentylenetetrazol-induced lethality in mouse assessed as delay in occurrence of death time up to 200 mg/kg, po; assay type: functional
Mus musculus [17] = test: Sedative activity in mouse assessed as increase in pentylenetetrazol-induced pseudo-convulsive threshold up to 200 mg/kg, po; assay type: functional, organism-based; design: dose 200 mg/kg
Mus musculus [18] = test: Hypnotic activity in mouse assessed as increase in pentylenetetrazol-induced persistent-convulsive threshold up to 200 mg/kg, po; assay type: functional, organism-based; design: dose 200 mg/kg
Mus musculus [19] = test: Potency index, ratio of chlorzoxazone MED20 to compound MED20 for muscle relaxant activity in po dosed mouse assessed as blockade of pentylenetetrazol-induced tonic extensor seizure; assay type: functional
Mus musculus [20] = test: Potency index, ratio of methocarbamol MED20 to compound MED20 for muscle relaxant activity in po dosed mouse assessed as blockade of pentylenetetrazol-induced tonic extensor seizure; assay type: functional
Mus musculus [21] = test: Potency index, ratio of chlorzoxazone MED20 to compound MED20 for anticonvulsant activity in po dosed mouse assessed as blockade of supramaximal electroshock-induced […] seizure; assay type: functional
Mus musculus [22] = test: Potency index, ratio of methocarbamol MED20 to compound MED20 for anticonvulsant activity in po dosed mouse assessed as blockade of supramaximal electroshock-induced […] seizure; assay type: functional
Rattus norvegicus [23] = test: Antianxiety activity in rat assessed as effect on increase in punished responses at 25 mg/kg, ip qd administered for 5 days measured every day for 5 days; assay type: functional, organism-based; design: dose 25 mg/kg
Mus musculus [24] = test: Sedative-hypnotic activity in mouse assessed as increase in pentylenetetrazol-induced pseudo/persistent-convulsive threshold at 1 to 5 mg/kg, po; assay type: functional, organism-based
Mus musculus [25] = test: Sedative-hypnotic activity in mouse assessed as increase in pentylenetetrazol-induced pseudo/persistent-convulsive threshold at 50 to 200 mg/kg, po; assay type: functional, organism-based
Mus musculus [26] = test: Sedative activity in mouse assessed as increase in pentylenetetrazol-induced pseudo-convulsive threshold at 25 mg/kg, po relative to control; assay type: functional
Mus musculus [27] = test: Hypnotic activity in mouse assessed as increase in pentylenetetrazol-induced persistent-convulsive threshold at 50 mg/kg, po relative to control; assay type: functional
Mus musculus [28] = test: Sedative activity in mouse assessed as increase in pentylenetetrazol-induced pseudo-convulsive threshold at 50 mg/kg, po relative to control; assay type: functional
Mus musculus [29] = test: Blockade of pentylenetetrazol-induced lethality in mouse at 40 mg/kg, po; assay type: functional, organism-based; design: dose 40 mg/kg
Mus musculus [30] = test: Muscle relaxant activity in mouse assessed as blockade of pentylenetetrazol-induced tonic extensor seizure at 40 mg/kg, po; assay type: functional, organism-based; design: dose 40 mg/kg

Structure (SMILES)	minimal effective dose (Rattus norvegicus [1])	MED20 (Mus musculus [2])	MED25 (Mus musculus [3])	MED20 (Mus musculus [4])	PD50 (Mus musculus [5])	LD50 at 144 h [6]	selectivity ratio [7]	selectivity ratio [15]	other results
COc1ccccc1OCC(O)COC(N)=O (stereo unspecified) [METHOCARBAMOL]	> 25 mg/kg	150 mg/kg	310 mg/kg	120 mg/kg	1050 mg/kg	2000 mg/kg	1.9		selectivity ratio [8]: 7; selectivity ratio [9]: 8.7; selectivity ratio [10]: 3.4
CN1CCC/C1=N\C(=O)Nc1cccc(Cl)c1	15 mg/kg	32 mg/kg	50 mg/kg	142 mg/kg	950 mg/kg	1500 mg/kg	1.6	63	Activity (Mus musculus [11]): Active; Activity (Mus musculus [12]): inactive; Activity (Mus musculus [13]): 50%; Activity (Mus musculus [14]): inactive
Cc1cccc(Cl)c1NC(=O)/N=C1\CCCN1C	> 25 mg/kg	28 mg/kg	52 mg/kg	43 mg/kg	232 mg/kg	449 mg/kg	1.9		Time (Mus musculus [16]): 1 min; Activity (Mus musculus [17]): inactive; Activity (Mus musculus [18]): inactive; Ratio (Mus musculus [19]): 4; Ratio (Mus musculus [20]): 4; Ratio (Mus musculus [21]): 3; Ratio (Mus musculus [22]): 3; selectivity ratio [10]: 4.5
CCCCCCCCCCCCNC(=O)/N=C1\CCCN1									Activity (Rattus norvegicus [23]): Active
CN1C(=O)CN=C(c2ccccc2)c2cc(Cl)ccc21 [DIAZEPAM]	0.5 mg/kg	0.1 mg/kg	0.17 mg/kg	15 mg/kg					Activity (Mus musculus [24]): Active
CN1CCC/C1=N\C(=O)Nc1ccc([N+](=O)[O-])cc1	15 mg/kg	100 mg/kg	>200 mg/kg	>200 mg/kg	1200 mg/kg	1310 mg/kg	1	80	Activity (Mus musculus [11]): Active; Activity (Mus musculus [25]): Active; Activity (Mus musculus [26]): 25%; Activity (Mus musculus [27]): 45%; Activity (Mus musculus [28]): 73%
CNC1=Nc2ccc(Cl)cc2C(c2ccccc2)=[N+]([O-])C1 [CHLORDIAZEPOXIDE]	2.5 mg/kg	1.5 mg/kg	10 mg/kg	71 mg/kg	680 mg/kg	990 mg/kg	1.5	260	Activity (Mus musculus [29]): Active; Activity (Mus musculus [30]): Active
